This is an account of results in US20250333407A1, “Compounds and Their Use for Treatment of Hemoglobinopathies” (Bristol-Myers Squibb Company, priority 2024, published 2025).

Holding throughout (type): cell-based
The target of one assay is T1, ZBTB7A (Homo sapiens, UniProt O95365+Q96SW2).
T1 construct: HUDEP-2 cells engineered to express a HiBiT tag in either the WIZ (Widely interspaced zinc finger) or ZBTB7A
As to the kind of experiment: HUDEP-2 ZBTB7A HiBiT degradation assay. The following applies: HiBiT-tagged ZBTB7A degradation in HUDEP-2 cells, 24 hours of treatment; read-out: ZBTB7A EC50. As to the method: (§1) WIZ Assay and ZBTB7A EC50 Assays. The HiBiT degradation assays for WIZ and ZBTB7A in HUDEP-2 cells were performed as described below. HUDEP-2 cells engineered to express a HiBiT tag in either the WIZ (Widely interspaced zinc finger) or ZBTB7A (Zinc Finger And BTB Domain Containing 7A) proteins were maintained in low attachment flasks in StemSpan SFEM II media supplemented with Penicillin-Streptomycin (50 U/mL), rhSCF (50 ng/mL), rhEPO (3 IU/mL), dexamethasone (0.4 μg/mL) and doxycycline (1 μg/mL). Prior to start of the assay, cell count and viability were measured by trypan blue exclusion using the Vi-cell XR cell viability analyzer.
For the HUDEP-2 ZBTB7A HiBiT assay, cell count and viability were measured by trypan blue exclusion using the Vi-cell XR cell viability analyzer and the cells were transferred to a 50 mL conical and centrifuged at 500 g for five minutes. Cells were resuspended in fresh IMDM media supplemented with L-Glutamine (1×), Penicillin-Streptomycin (50 U/mL), holo-transferrin (330 μg/mL), heparin (2 IU/mL), r-human Insulin (10 μg/mL), rhEPO (3 IU/mL), rhSCF (100 ng/mL)+Dox (1 μg/mL) and 5% human plasma in low attachment flasks, which were placed in a 37° C. incubator with 5% CO2. After 48 hours, cell count and viability were measured by trypan blue exclusion using the Vi-cell XR cell viability analyzer. The HUDEP-2 ZBTB7A cells were transferred to a 50 mL conical, centrifuged at 500 g for five minutes and resuspended at a density of 1.0×10^6 cells/ml in IMDM media supplemented with L-Glutamine (1×), Penicillin-Streptomycin (50 U/mL), holo-transferrin (330 μg/mL), heparin (2 IU/mL), r-human Insulin (10 μg/mL), rhEPO (3 IU/mL), rhSCF (100 ng/mL)+Dox (1 μg/mL) and 5% human plasma. Forty microliters of cell suspension was dispensed into 384-well Low Flange White Flat Bottom Polystyrene TC-treated Microplates containing pre-dispensed compounds, using a VIAFLO 384 liquid hander, and placed in a 37° C. incubator with 5% CO2. […] After 24 hours of treatment, 40 μL Nano-Glo HiBiT Lytic Detection System reagent was dispensed into each well using a VIAFLO 384 liquid hander. Plates were incubated for 25 minutes at room temperature and the luminescence was read as relative luminescent units using the EnVision plate reader. EC50 and Y-min values were calculated using curves calculated from dotmatics software after the normalization to the DMSO control of 10 different concentrations: 10, 3.33, 1.11, 0.37, 0.12, 0.04 0.0137, 0.0046, 0.0015 and […] respectively.
Background: With HiBiT, luminescence reflects the tagged protein that the partner subunit can reach.

The next assay addresses T2, WIZ (Homo sapiens, UniProt O95785+Q96SW2).
T2 construct: HUDEP-2 cells engineered to express a HiBiT tag in either the WIZ (Widely interspaced zinc finger) or ZBTB7A
The assay is described as follows: HUDEP-2 WIZ HiBiT degradation assay. The following applies: HiBiT-tagged WIZ degradation in HUDEP-2 cells, 24 hours of treatment; read-out: WIZ EC50. As to the method:
as §1
For the HUDEP-2 WIZ HiBiT assay, cells were transferred to a 50 mL conical and centrifuged at 500 g for five minutes. Cells were resuspended in fresh StemSpan SFEM II media supplemented with Penicillin-Streptomycin (50 U/mL), rhSCF (50 ng/mL), rhEPO (3 IU/mL), dexamethasone (0.4 μg/mL) and doxycycline (1 μg/mL) at a density of 1.0×10^6 cells/ml. Forty microliters of cell suspension was dispensed into 384-well Low Flange White Flat Bottom Polystyrene TC-treated Microplates containing pre-dispensed compounds, using a VIAFLO 384 liquid hander, and placed in a 37° C. incubator with 5% CO2. […] After 24 hours of treatment, 40 μL Nano-Glo HiBiT Lytic Detection System reagent was dispensed into each well using a VIAFLO 384 liquid hander. Plates were incubated for 25 minutes at room temperature and the luminescence was read as relative luminescent units using the EnVision plate reader. EC50 and Y-min values were calculated using curves calculated from dotmatics software after the normalization to the DMSO control of 10 different concentrations: 10, 3.33, 1.11, 0.37, 0.12, 0.04 0.0137, 0.0046, 0.0015 and […] respectively.

Another assay has as its system HbF. The assay is described as follows: HbF HiBiT induction assay in HUDEP-2 cells. To be noted: HUDEP-2 cells with HiBiT tag in HBG1/2, 72 hours of treatment; area under the dose response curve, higher AUC = greater HbF induction. As to the method: HbF HiBiT induction assay. The HiBiT induction assay for HbF in HUDEP-2 cells was performed as described below. HUDEP-2 cells engineered to express a HiBiT tag in HBG1/2 were maintained at a density of 0.1-1×10^6 cells/ml in StemSpan SFEM II supplemented with 1% penicillin/streptomycin, hSCF (50 ng/mL), erythropoietin (EPO; 3 IU/mL), dexamethasone (DEX; 0.4 μg/mL), and doxycycline hyclate (DOX; 1 μg/mL). The cells were cultured in low adherence flasks, in a humidified incubator, set at 37° C. with 5% CO2. Cell counts and viability were measured by trypan blue exclusion using the Vi-CELL XR cell viability analyzer and the cell growth was consistently maintained in log phase.
Prior to the start of experiments, HbF HiBiT-tagged HUDEP-2 cells were transferred to a 50 mL conical and centrifuged at 500×g for 5 minutes, the supernatant removed, and the pellet washed in 5 mL of 1×PBS. The washed cells were centrifuged again at 500×g for 5 minutes and resuspended in IMDM containing; 1×glutamine, 1×penicillin/streptomycin, holo-transferrin (330 μg/mL), heparin (2 IU/mL), r-human insulin (10 μg/mL), EPO (3 IU/mL), 5% human plasma, hSCF (100 ng/mL) and DOX (1 μg/mL) to a final density of 0.3×10^6 cells/mL. Forty microliters of cell suspension were dispensed into 384-well Low Flange White Flat Bottom Polystyrene TC-treated Microplates containing pre-dispensed compounds, using a VIAFLO 384 liquid hander, and placed in a humidified incubator at 37° C. with 5% CO2. […] After 72 hours of treatment, 40 μL of Nano-Glo HiBiT Lytic Solution (prepared according to manufacturer's instructions) were dispensed into each well using a VIAFLO 384 liquid handler, and the plates were shaken for 20 seconds. Plates were incubated for 20 minutes at room temperature, and the luminescence was read as relative luminescent units using an EnVision plate reader.
Dose response curves were generated, and EC50, Ymax, and then area under the curve (AUC) values were calculated. HbF induction was measured using the calculated area under the curve (AUC) value, with higher AUC values indicative of greater HbF induction relative to lower AUC values.

T2 sequence (O95785 whole entry): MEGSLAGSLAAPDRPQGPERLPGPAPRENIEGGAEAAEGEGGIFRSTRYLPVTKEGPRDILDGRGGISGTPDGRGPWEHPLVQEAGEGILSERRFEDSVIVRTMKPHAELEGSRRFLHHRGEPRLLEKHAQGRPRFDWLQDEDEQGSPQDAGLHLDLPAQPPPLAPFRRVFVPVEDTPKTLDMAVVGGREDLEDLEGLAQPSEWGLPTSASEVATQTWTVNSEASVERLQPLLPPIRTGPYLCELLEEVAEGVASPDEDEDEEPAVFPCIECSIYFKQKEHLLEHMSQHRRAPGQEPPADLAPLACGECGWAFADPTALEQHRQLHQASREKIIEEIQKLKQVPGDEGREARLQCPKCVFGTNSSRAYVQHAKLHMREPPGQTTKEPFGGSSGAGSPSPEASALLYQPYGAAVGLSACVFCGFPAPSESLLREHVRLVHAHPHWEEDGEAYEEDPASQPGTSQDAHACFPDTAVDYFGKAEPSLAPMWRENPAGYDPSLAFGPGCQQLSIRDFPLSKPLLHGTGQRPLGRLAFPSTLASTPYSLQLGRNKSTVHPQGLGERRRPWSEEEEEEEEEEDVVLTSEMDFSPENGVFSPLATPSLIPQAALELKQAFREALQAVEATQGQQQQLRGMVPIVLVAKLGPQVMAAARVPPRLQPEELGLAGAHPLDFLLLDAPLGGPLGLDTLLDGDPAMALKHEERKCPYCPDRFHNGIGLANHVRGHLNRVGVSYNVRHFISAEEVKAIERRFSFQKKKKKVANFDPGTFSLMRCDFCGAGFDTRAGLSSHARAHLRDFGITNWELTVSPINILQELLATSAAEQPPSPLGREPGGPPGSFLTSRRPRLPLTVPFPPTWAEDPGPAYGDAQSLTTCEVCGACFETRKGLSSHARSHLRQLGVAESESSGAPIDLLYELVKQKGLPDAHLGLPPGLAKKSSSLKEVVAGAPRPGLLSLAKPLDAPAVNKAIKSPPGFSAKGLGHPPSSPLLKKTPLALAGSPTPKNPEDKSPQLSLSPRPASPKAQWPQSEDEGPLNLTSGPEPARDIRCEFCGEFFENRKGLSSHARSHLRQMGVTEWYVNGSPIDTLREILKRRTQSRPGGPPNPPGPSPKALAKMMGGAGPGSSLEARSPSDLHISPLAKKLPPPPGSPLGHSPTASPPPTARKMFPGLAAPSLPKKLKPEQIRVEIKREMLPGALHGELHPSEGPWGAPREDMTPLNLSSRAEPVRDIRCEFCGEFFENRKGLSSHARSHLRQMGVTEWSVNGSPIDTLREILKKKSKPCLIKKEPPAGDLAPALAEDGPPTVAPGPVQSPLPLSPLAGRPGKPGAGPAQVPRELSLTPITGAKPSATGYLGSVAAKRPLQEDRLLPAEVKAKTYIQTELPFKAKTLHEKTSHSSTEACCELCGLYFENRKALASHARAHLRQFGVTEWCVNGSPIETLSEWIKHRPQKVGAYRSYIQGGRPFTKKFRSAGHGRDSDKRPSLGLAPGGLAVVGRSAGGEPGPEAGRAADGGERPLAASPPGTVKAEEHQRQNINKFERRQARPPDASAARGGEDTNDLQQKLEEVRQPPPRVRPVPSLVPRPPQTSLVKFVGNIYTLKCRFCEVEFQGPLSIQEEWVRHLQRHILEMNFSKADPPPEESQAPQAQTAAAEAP
T2 sequence (Q96SW2 whole entry): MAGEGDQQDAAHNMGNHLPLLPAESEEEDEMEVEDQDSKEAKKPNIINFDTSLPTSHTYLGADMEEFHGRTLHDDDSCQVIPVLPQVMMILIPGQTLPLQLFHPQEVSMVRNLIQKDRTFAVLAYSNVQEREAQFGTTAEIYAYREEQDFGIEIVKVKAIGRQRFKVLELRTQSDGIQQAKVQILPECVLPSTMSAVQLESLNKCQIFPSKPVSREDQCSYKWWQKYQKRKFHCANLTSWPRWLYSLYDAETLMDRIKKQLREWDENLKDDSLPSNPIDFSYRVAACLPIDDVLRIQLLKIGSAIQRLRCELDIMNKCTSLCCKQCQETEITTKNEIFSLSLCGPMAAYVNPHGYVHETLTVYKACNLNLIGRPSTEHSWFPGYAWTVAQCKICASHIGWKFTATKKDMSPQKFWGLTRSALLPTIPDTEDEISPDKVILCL
T2 sequence (Q16531 whole entry partner): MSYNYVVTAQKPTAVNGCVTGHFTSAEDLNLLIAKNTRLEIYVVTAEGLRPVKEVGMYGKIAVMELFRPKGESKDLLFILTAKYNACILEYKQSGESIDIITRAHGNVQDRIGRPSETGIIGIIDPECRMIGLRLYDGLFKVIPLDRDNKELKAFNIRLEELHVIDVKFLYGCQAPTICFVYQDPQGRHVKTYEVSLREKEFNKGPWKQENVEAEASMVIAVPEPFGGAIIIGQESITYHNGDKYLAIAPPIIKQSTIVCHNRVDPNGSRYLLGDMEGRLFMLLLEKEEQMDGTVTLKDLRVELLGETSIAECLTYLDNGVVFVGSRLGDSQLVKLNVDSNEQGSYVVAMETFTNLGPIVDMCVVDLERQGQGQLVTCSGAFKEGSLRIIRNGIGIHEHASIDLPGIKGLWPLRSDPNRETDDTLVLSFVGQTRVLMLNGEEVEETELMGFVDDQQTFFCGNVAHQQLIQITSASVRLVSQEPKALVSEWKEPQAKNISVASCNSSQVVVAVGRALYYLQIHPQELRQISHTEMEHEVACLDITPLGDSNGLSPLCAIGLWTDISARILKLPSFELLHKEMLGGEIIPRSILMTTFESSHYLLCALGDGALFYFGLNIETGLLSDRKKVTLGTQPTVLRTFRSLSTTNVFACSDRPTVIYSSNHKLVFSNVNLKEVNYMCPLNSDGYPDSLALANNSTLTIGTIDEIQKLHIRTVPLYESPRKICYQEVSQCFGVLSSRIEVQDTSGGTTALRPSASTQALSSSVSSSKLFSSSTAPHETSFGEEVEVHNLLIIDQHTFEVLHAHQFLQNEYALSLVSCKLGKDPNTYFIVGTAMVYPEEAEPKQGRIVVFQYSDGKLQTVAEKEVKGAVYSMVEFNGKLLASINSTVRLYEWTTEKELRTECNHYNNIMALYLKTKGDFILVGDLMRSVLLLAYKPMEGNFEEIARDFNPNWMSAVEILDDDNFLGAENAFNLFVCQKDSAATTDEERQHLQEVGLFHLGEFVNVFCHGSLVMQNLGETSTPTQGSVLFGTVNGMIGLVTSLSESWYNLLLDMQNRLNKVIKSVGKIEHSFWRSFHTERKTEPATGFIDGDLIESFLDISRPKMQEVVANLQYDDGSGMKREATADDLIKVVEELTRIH
T1 sequence (O95365 whole entry): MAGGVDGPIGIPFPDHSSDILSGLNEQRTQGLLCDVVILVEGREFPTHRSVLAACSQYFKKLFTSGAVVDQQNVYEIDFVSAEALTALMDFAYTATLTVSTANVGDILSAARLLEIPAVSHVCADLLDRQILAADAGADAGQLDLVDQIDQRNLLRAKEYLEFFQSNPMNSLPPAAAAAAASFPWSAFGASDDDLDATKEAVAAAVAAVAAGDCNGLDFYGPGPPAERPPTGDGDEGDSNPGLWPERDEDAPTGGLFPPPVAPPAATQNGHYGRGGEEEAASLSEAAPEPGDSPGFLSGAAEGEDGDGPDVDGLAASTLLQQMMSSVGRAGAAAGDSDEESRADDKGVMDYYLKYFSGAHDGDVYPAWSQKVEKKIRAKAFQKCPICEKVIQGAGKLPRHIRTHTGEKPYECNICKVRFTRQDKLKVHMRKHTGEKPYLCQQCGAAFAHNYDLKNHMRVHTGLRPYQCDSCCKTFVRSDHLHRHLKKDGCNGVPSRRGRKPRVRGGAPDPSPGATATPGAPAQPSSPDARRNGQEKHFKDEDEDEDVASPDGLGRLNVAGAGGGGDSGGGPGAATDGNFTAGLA
T1 sequence (Q96SW2 whole entry): as the sequence (Q96SW2 whole entry) above
T1 sequence (Q16531 whole entry partner): as the sequence (Q16531 whole entry partner) above

As for `Cc1cc(-c2cc3c(cc2Nc2cccc4c2C(=O)N([C@H]2CCC(=O)NC2=O)C4=O)N(C)C(=O)O[C@H]3C)ccn1` [Compound 22, 4-(((S)-1,4-dimethyl-6-(2-methylpyridin-4-yl)-2-oxo-1,4-dihydro-2H-benzo[d][1,3]oxazin-7-yl)amino)-2-((S)-2,6-dioxopiperidin-3-yl)isoindoline-1,3-dione], the results for the DC50 at ZBTB7A and at WIZ were 13 nM and 17 nM, respectively. For the same molecule, the “HBF AUC” value in the assay with HbF is recorded as “+++ (+++ = AUC ≥ 150)”.
The corresponding values for `Cc1cc(-c2cc3c(cc2Nc2cccc4c2C(=O)N([C@H]2CCC(=O)NC2=O)C4=O)N(C)C(=O)[C@H](C)O3)cc(C)n1` [Compound 23, 4-(((S)-7-(2,6-dimethylpyridin-4-yl)-2,4-dimethyl-3-oxo-3,4-dihydro-2H-benzo[b][1,4]oxazin-6-yl)amino)-2-((S)-2,6-dioxopiperidin-3-yl)isoindoline-1,3-dione] are 15 nM, 11 nM and “++ (++ = 100 ≤ AUC < 150)”.
Consider `Cc1cc(-c2cc3c(cc2Nc2cccc4c2C(=O)N([C@H]2CCC(=O)NC2=O)C4=O)N(C)C(=O)[C@@H](C)O3)cc(C)n1` [Compound 24, 4-(((R)-7-(2,6-dimethylpyridin-4-yl)-2,4-dimethyl-3-oxo-3,4-dihydro-2H-benzo[b][1,4]oxazin-6-yl)amino)-2-((S)-2,6-dioxopiperidin-3-yl)isoindoline-1,3-dione], for which the DC50 came out at 26 nM on ZBTB7A and 14 nM on WIZ. The “HBF AUC” value with HbF is given as “+++ (+++ = AUC ≥ 150)”.
Consider `CCN1C(=O)COc2cc(-c3ccnc(C)c3)c(Nc3cccc4c3C(=O)N([C@H]3CCC(=O)NC3=O)C4=O)cc21` [Compound 25, (S)-2-(2,6-dioxopiperidin-3-yl)-4-((4-ethyl-7-(2-methylpyridin-4-yl)-3-oxo-3,4-dihydro-2H-benzo[b][1,4]oxazin-6-yl)amino)isoindoline-1,3-dione], for which the DC50 at ZBTB7A came to 24 nM; at WIZ it was 18 nM. The “HBF AUC” value with HbF was “+ (+ = 15 ≤ AUC < 100)”.
The corresponding values for `Cc1cc(-c2cc3c(cc2Nc2cccc4c2C(=O)N([C@H]2CCC(=O)NC2=O)C4=O)N(C2CC2)C(=O)CO3)ccn1` [Compound 26, (S)-4-((4-cyclopropyl-7-(2-methylpyridin-4-yl)-3-oxo-3,4-dihydro-2H-benzo[b][1,4]oxazin-6-yl)amino)-2-(2,6-dioxopiperidin-3-yl)isoindoline-1,3-dione] are 98 nM, 13 nM and “++ (++ = 100 ≤ AUC < 150)”.
The corresponding values for `Cc1cc(-c2cc3c(cc2Nc2cccc4c2C(=O)N([C@H]2CCC(=O)NC2=O)C4=O)N(C)C(=O)[C@@H](C)O3)c(F)cn1` [Compound 27, 2-((S)-2,6-dioxopiperidin-3-yl)-4-(((R)-7-(5-fluoro-2-methylpyridin-4-yl)-2,4-dimethyl-3-oxo-3,4-dihydro-2H-benzo[b][1,4]oxazin-6-yl)amino)isoindoline-1,3-dione] are 11 nM, 6 nM and “+ (+ = 15 ≤ AUC < 100)”.
Taken in the same sequence, the figures for `COc1cc(-c2cc3c(cc2Nc2cccc4c2C(=O)N([C@H]2CCC(=O)NC2=O)C4=O)N(C)C(=O)CO3)c(F)cn1` [Compound 28, (S)-2-(2,6-dioxopiperidin-3-yl)-4-((7-(5-fluoro-2-methoxypyridin-4-yl)-4-methyl-3-oxo-3,4-dihydro-2H-benzo[b][1,4]oxazin-6-yl)amino)isoindoline-1,3-dione] were 13 nM, 11 nM and “+++ (+++ = AUC ≥ 150)”.
Consider `COc1cc(-c2cc3c(cc2Nc2cccc4c2C(=O)N([C@H]2CCC(=O)NC2=O)C4=O)N(C)C(=O)[C@H](C)O3)c(F)cn1` [Compound 29, 2-((S)-2,6-dioxopiperidin-3-yl)-4-(((S)-7-(5-fluoro-2-methoxypyridin-4-yl)-2,4-dimethyl-3-oxo-3,4-dihydro-2H-benzo[b][1,4]oxazin-6-yl)amino)isoindoline-1,3-dione], for which the results for the DC50 on ZBTB7A and on WIZ were 23 nM and 5 nM, respectively. Moreover, the “HBF AUC” value in the assay with HbF is reported as “+ (+ = 15 ≤ AUC < 100)”.
The corresponding values for `COc1cc(-c2cc3c(cc2Nc2cccc4c2C(=O)N([C@H]2CCC(=O)NC2=O)C4=O)N(C)C(=O)[C@@H](C)O3)c(F)cn1` [Compound 30, 2-((S)-2,6-dioxopiperidin-3-yl)-4-(((R)-7-(5-fluoro-2-methoxypyridin-4-yl)-2,4-dimethyl-3-oxo-3,4-dihydro-2H-benzo[b][1,4]oxazin-6-yl)amino)isoindoline-1,3-dione] are 19 nM, 11 nM and “++ (++ = 100 ≤ AUC < 150)”.
Taken in the same sequence, the figures for `CC(=O)N1CCC(c2cc3c(cc2Nc2cccc4c2C(=O)N([C@H]2CCC(=O)NC2=O)C4=O)N(C)C(=O)[C@H](C)O3)CC1` [Compound 31, 4-(((S)-7-(1-acetylpiperidin-4-yl)-2,4-dimethyl-3-oxo-3,4-dihydro-2H-benzo[b][1,4]oxazin-6-yl)amino)-2-((S)-2,6-dioxopiperidin-3-yl)isoindoline-1,3-dione] were 35 nM, 6 nM and “+++ (+++ = AUC ≥ 150)”.
